Measurements taken from US20260085036A1 (MiHKAL GmbH, priority 2022, published 2026).

Assays:
human DAT = molecular target: T1, human DAT (Homo sapiens, UniProt Q01959); test: Uptake inhibition assay, DAT; format: cell-based
T1 construct: expressed in transfected cells
Experimental: (§1) Human embryonic kidney (HEK) 293 cells stably expressing human DAT, NET or SERT were maintained in humidified atmosphere (37° C., 5% CO2) in Dulbecco's Modified Eagle Medium (DMEM), supplemented with 10% heat-inactivated fetal calf serum (FCS), streptomycin (100 μg×100 mL^−1) and penicillin (100 U×100 mL^−1). Geneticin (50 μg×mL^−1) was used as selection antibiotic.
(§2) One day before the experiment, HEK293 cells expressing the respective transporters (DAT, NET or SERT) were seeded onto poly-D-lysine coated 96 well plates at a density of 30,000 cells per well in a final volume of 200 μL. For uptake experiments, the cell culture medium was replaced with […] Krebs-HEPES buffer (KHB; 25 mM HEPES, 120 mM NaCl, 5 mM KCl, 1.2 mM CaCl2, 1.2 mM MgSO4, and 5 mM D-glucose, pH 7.3). Then, the buffer was replaced with various concentrations of test compounds for 5 minutes; subsequent to that, 0.1 μM [^3H]5-HT (SERT), 0.1 μM [^3H]dopamine (DAT), or 0.05 μM [^3H]MPP^+ (NET) in KHB was added to yield a total volume of 50 μL in the well. For determination of non-specific uptake, paroxetine was used in case of SERT (3 μM), vanoxerine (also known as GBR12909) for DAT and NET (50 μM).
(§3) Uptake was terminated after 60 s (SERT) or 180 s (DAT, NET) by washing the cells with 200 μL ice-cold KHB. Subsequently, the cells were lysed with 200 μL Ultima Gold™ XR liquid scintillation cocktail, and the amount of tritium in the cells was measured with a Wallac 1450 MicroBeta® TriLux liquid scintillation counter. Monoamine uptake data were fitted by nonlinear regression, Vmax and Km values were calculated from Michaelis Menten's least-squares fit with GraphPad Prism (Prism 9.0.2, GraphPad Software, San Diego, CA, USA).
(§4) RT054 and RT056 were tested in both uptake inhibition and release assays, and the corresponding prodrug AM176 was tested in uptake inhibition assays. AM176 was tested either as the undecomposed prodrug or after treatment with 0.5% HCl at 37° C. for 24 hours in order to simulate digestion of the prodrug by gastric acid inside the body after peroral administration.

human NET = molecular target: T2, human NET (Homo sapiens, UniProt P23975); test: Uptake inhibition assay, NET; format: cell-based
T2 construct: expressed in transfected cells
T2 sequence (P23975 whole entry): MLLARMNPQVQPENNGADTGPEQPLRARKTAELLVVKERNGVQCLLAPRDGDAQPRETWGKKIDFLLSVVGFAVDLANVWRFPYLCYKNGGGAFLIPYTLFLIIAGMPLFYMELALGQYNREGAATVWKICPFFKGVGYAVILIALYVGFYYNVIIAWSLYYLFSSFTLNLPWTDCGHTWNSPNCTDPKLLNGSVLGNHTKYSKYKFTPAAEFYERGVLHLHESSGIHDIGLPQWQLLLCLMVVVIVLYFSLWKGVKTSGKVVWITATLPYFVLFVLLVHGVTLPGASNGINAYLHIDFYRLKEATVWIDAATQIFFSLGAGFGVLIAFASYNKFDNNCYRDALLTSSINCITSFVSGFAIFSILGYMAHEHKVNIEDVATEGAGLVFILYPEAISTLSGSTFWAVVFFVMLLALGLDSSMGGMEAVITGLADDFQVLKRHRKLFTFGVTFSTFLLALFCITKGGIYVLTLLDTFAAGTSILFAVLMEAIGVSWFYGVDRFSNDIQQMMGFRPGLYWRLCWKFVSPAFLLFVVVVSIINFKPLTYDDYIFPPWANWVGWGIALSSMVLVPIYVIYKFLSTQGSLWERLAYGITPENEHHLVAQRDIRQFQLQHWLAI
Experimental: as §1, §2, §3, §4

human SERT = molecular target: T3, human SERT (Homo sapiens, UniProt P31645); test: Uptake inhibition assay, SERT; format: cell-based
T3 construct: expressed in transfected cells
T3 sequence (P31645 whole entry): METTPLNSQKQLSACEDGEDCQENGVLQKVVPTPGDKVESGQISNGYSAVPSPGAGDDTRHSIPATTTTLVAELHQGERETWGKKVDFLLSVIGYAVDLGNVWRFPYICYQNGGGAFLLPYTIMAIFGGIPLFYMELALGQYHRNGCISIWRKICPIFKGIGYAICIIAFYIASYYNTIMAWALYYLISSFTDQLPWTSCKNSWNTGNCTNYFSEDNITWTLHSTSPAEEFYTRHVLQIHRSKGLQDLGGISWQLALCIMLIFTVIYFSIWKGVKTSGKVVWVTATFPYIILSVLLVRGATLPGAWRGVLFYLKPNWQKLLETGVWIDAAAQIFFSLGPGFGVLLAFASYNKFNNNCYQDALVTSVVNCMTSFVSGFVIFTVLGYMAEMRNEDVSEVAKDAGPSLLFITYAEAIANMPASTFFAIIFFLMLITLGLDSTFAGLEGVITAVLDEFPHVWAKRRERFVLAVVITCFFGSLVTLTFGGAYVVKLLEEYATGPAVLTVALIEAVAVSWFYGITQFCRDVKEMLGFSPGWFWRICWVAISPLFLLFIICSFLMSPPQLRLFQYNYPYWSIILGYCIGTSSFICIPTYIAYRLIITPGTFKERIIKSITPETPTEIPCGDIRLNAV
Experimental: as §1, §2, §3, §4

[1] = patients; cited from earlier work
[2] = Stability study in phosphate buffers pH 7.4 and pH 8.0; format: physicochemical; conditions: phosphate buffer pH 7.4/pH 8.0, 37° C.
Experimental: (§5) Three novel compounds i.e., tert-butyl (2,5-dimethoxy-4-methylphenethyl)carbamate (Preparative Example 18), tert-butyl (2,5-dimethoxyphenethyl)carbamate (Preparative Example 7), and N-(3,4,5-Trimethoxyphenethyl-2-hydroxy-acetophenon imine (Preparative Example 17) were tested for their stability in 1% hydrochloric acid (HCl) as well as in phosphate buffers at pH 7.4 and pH 8.0. These conditions were selected to provide insights into the chemical stability of compounds at a pH values similar to conditions within the human body. The diluted hydrochloric acid (pH 1) represents gastric acid within the stomach whereas the potassium phosphate buffers at pH 7.4 and pH 8.0 simulate the conditions in the human blood and small intestine, respectively.
(§6) 4 mg of each test compound was diluted in either HCl solution or phosphate buffer (0.1 M) to give a solution of 1 mg/ml. Regarding the acidic testing with hydrochloric acid, 2 ml of aqueous test compound solutions were then added to 2 ml of 0.64 M HCl, yielding a final HCl concentration of 0.32 M (pH 0.5). Since all compounds tested, represent «free bases», a minimal amount of 100-200 microliters of dimethylsulfoxide (DMSO) has been added to avoid aggregation effects during testing. […] Concentrations of parent compound were analyzed at various timepoints using LC-MS. […]

[3] = cited from earlier work
[4] = Stability study in 1% HCl (representative of gastric acid); format: physicochemical; conditions: 37° C., approximately 21 hours, LC-MS
Experimental: as §5, §6

[5] = HEK293 cells stably expressing DAT, [3H]dopamine
[6] = HEK293 cells stably expressing NET, [3H]MPP+
[7] = HEK293 cells stably expressing SERT, [3H]5-HT

T1 sequence (Q01959 whole entry): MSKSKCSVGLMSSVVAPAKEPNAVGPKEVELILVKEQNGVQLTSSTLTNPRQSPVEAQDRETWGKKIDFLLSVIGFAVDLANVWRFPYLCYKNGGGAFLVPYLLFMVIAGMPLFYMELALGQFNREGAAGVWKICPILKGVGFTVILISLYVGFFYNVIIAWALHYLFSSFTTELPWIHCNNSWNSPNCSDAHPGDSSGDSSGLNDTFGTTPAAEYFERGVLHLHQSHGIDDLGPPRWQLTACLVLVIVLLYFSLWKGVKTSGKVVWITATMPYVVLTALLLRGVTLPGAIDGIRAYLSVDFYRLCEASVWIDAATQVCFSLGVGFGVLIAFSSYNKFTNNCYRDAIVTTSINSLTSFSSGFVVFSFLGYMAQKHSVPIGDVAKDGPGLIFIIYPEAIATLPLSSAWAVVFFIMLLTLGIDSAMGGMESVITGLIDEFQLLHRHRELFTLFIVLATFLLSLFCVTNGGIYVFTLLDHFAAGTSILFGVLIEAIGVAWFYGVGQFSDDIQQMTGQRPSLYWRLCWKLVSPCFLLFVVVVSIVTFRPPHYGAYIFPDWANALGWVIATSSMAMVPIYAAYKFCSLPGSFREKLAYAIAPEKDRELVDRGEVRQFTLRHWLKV

CNC(C)Cc1ccc2c(c1)OCS2 (centres unmarked) [RT056, Benzoxathiol-6-yl-N-methyl-propan-2-amine]
IC50 (human DAT; [5]): 0.9 µM
IC50 (human NET; [6]): 1.8 µM
IC50 (human SERT; [7]): 4.5 µM

COc1cc(CCN)cc(OC)c1OC [Mescaline, mescaline]
oral dose to cause the desired psychedelic state [1]: over 200 mg

CC(Cc1ccc2c(c1)OCS2)N(C)C(=O)OC(C)(C)C (centres unmarked) [AM176, tert-butyl (1-benzo[d][1,3]oxathiole-6-yl)propan-2-yl(methyl)carbamate]
IC50 (human DAT; HCl-treated (0.5% HCl at 37° C. for 24 hours), HEK293 cells expressing DAT): 3.4 µM
Interaction with DAT in uptake inhibition assay (in words) (human DAT; after pre-treatment with HCl): inhibits substrate-uptake via all monoamine transporters in a competitive manner
Interaction with DAT in uptake inhibition assay (in words) (human DAT; without pre-treatment with HCl): no interaction
IC50 (human NET; HCl-treated (0.5% HCl at 37° C. for 24 hours), HEK293 cells expressing NET): 9.2 µM
Interaction with NET in uptake inhibition assay (in words) (human NET; after pre-treatment with HCl): inhibits substrate-uptake via all monoamine transporters in a competitive manner
Interaction with NET in uptake inhibition assay (in words) (human NET; without pre-treatment with HCl): no interaction
IC50 (human SERT; HCl-treated (0.5% HCl at 37° C. for 24 hours), HEK293 cells expressing SERT): 18.3 µM
Interaction with SERT in uptake inhibition assay (in words) (human SERT; after pre-treatment with HCl): inhibits substrate-uptake via all monoamine transporters in a competitive manner
Interaction with SERT in uptake inhibition assay (in words) (human SERT; without pre-treatment with HCl): no interaction

COc1cc(CCNC(=O)OC(C)(C)C)c(OC)cc1C [Preparative Example 18, t-butyl-(2,5-Dimethoxy-4-methylphenethyl)carbamate]
Degradation at neutral and basic conditions [2]: complete stability

NCCc1ccccc1 [phenethylamine (PEA), phenethylamine]
half-life after oral consumption [3]: approximately 10 minutes

COc1ccc(OC)c(CCNC(=O)OC(C)(C)C)c1 [Preparative Example 7, tert.-butyl-(2,5-Dimethoxyphenethyl)carbamate]
Degradation at neutral and basic conditions [2]: complete stability

CC(N)Cc1ccc2c(c1)OCS2 (centres unmarked) [RT054, Benzoxathiol-6-yl-propan-2-amine, reference compound]
IC50 (human DAT; [5]): 1.3 µM
IC50 (human NET; [6]): 0.8 µM
IC50 (human SERT; [7]): 3.6 µM

COc1cc(CC/N=C(\C)c2ccccc2O)cc(OC)c1OC
Degradation in 1% HCl to the corresponding drug [4]: more retarded degradation behavior
